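Abbreviation: GI50, concentration required for 50% inhibition of growth. TGI: concentration producing complete growth inhibition.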
Key:
Experiment in all cases: DTP human tumour cell line panel, 384-well format
[1] = system: 786-0 renal
[2] = system: A498 renal
[3] = system: A549 NSCLC
[4] = system: ACHN renal
[5] = system: BT-549 breast
[6] = system: CAKI-1 renal
[7] = system: CCRF-CEM leukemia
[8] = system: COLO 205 colon
[9] = system: DU-145 prostate
[10] = system: EKVX NSCLC
[11] = system: HCC-2998 colon
[12] = system: HCT-116 colon
[13] = system: HCT-15 colon
[14] = system: HL-60(TB) leukemia
[15] = system: HOP-62 NSCLC
[16] = system: HOP-92 NSCLC
[17] = system: HS 578T breast
[18] = system: IGROV1 ovarian
[19] = system: K-562 leukemia
[20] = system: LOX IMVI melanoma
[21] = system: M14 melanoma
[22] = system: MALME-3M melanoma
[23] = system: MCF7 breast
[24] = system: MDA-MB-231 breast
[25] = system: MDA-MB-435 melanoma
[26] = system: MDA-MB-468 breast
[27] = system: MOLT-4 leukemia
[28] = system: NCI-H226 lung
[29] = system: NCI-H23 lung
[30] = system: NCI-H322M lung
[31] = system: NCI-H460 NSCLC
[32] = system: NCI-H522 lung
[33] = system: NCI/ADR-RES ovarian
[34] = system: OVCAR-3 ovarian
[35] = system: OVCAR-4 ovarian
[36] = system: OVCAR-5 ovarian
[37] = system: OVCAR-8 ovarian
[38] = system: PC-3 prostate
[39] = system: RPMI-8226 leukemia
[40] = system: RXF 393 renal
[41] = system: SF-268 CNS
[42] = system: SF-295 CNS
[43] = system: SF-539 CNS
[44] = system: SK-MEL-28 melanoma
[45] = system: SK-MEL-5 melanoma
[46] = system: SK-OV-3 ovarian
[47] = system: SN12C renal
[48] = system: SNB-19 CNS
[49] = system: SNB-75 CNS
[50] = system: SW-620 colon
[51] = system: TK-10 renal
[52] = system: U251 glioblastoma
[53] = system: UACC-257 melanoma
[54] = system: UACC-62 melanoma
[55] = system: UO-31 renal

N#CCCNc1nonc1-c1nc2ccccc2n1CC(=O)c1ccc(NC(=O)[C@@H](N)CCCCN)cc1
GI50 [1]: 36.3 nM | TGI [1]: 422 nM | GI50 [2]: 30.6 nM | TGI [2]: > 100000 nM | GI50 [3]: 36.9 nM | TGI [3]: > 100000 nM | GI50 [4]: 63.6 nM | TGI [4]: > 100000 nM | GI50 [5]: 22.2 nM | TGI [5]: 54 nM | GI50 [6]: 41.1 nM | TGI [6]: > 100000 nM | GI50 [7]: 18.3 nM | TGI [7]: 33.1 nM | GI50 [8]: 27.8 nM | TGI [8]: 78.3 nM | GI50 [9]: 37.5 nM | TGI [9]: 640 nM | GI50 [10]: 54.5 nM | TGI [10]: > 100000 nM | GI50 [11]: 24.9 nM | TGI [11]: 74.1 nM | GI50 [12]: 33.3 nM | TGI [12]: 192 nM | GI50 [13]: 30 nM | TGI [13]: 103 nM | GI50 [14]: 20.7 nM | TGI [14]: 35.8 nM | GI50 [15]: 38.8 nM | TGI [15]: 1020 nM | GI50 [16]: 51.5 nM | TGI [16]: 884 nM | GI50 [17]: 17.4 nM | TGI [17]: 36.9 nM | GI50 [18]: 43.5 nM | TGI [18]: > 100000 nM | GI50 [19]: 18.7 nM | TGI [19]: 38.8 nM | GI50 [20]: 46 nM | TGI [20]: 407 nM | GI50 [21]: 19.9 nM | TGI [21]: 46.5 nM | GI50 [22]: 34.8 nM | TGI [22]: 163 nM | GI50 [23]: 39.4 nM | TGI [23]: 3270 nM | GI50 [24]: 135 nM | TGI [24]: 78600 nM | GI50 [25]: 19.4 nM | TGI [25]: 38.3 nM | GI50 [26]: 19.9 nM | TGI [26]: 46.1 nM | GI50 [27]: 16.8 nM | TGI [27]: 31.1 nM | GI50 [28]: 90.3 nM | TGI [28]: 41900 nM | GI50 [29]: 21.8 nM | TGI [29]: 52.6 nM | GI50 [30]: 73 nM | TGI [30]: > 100000 nM | GI50 [31]: 22.1 nM | TGI [31]: 47.3 nM | GI50 [32]: 17.7 nM | TGI [32]: 37 nM | GI50 [33]: 18.2 nM | TGI [33]: 35.1 nM | GI50 [34]: 19.9 nM | TGI [34]: 45.7 nM | GI50 [35]: 86.1 nM | TGI [35]: 66300 nM | GI50 [36]: 120 nM | TGI [36]: > 100000 nM | GI50 [37]: 32 nM | TGI [37]: 117 nM | GI50 [38]: 38.9 nM | TGI [38]: 948 nM | GI50 [39]: 19.2 nM | TGI [39]: 35.4 nM | GI50 [40]: 20.8 nM | TGI [40]: 53 nM | GI50 [41]: 13.6 nM | TGI [41]: 47.4 nM | GI50 [42]: 26.3 nM | TGI [42]: 71.4 nM | GI50 [43]: 20 nM | TGI [43]: 45.7 nM | GI50 [44]: 78.1 nM | TGI [44]: 46300 nM | GI50 [45]: 20.9 nM | TGI [45]: 57.1 nM | GI50 [46]: 39.9 nM | TGI [46]: 16200 nM | GI50 [47]: 45.2 nM | TGI [47]: 2170 nM | GI50 [48]: 37 nM | TGI [48]: > 100000 nM | GI50 [49]: 38.7 nM | TGI [49]: 66600 nM | GI50 [50]: 42.4 nM | TGI [50]: 88400 nM | GI50 [51]: 83.4 nM | TGI [51]: 93000 nM | GI50 [52]: 32.8 nM | TGI [52]: 148 nM | GI50 [53]: 59.1 nM | TGI [53]: 22600 nM | GI50 [54]: 31 nM | TGI [54]: 344 nM | GI50 [55]: 60.1 nM | TGI [55]: 11300 nM

— PubChem BioAssay (NCI)
